Laboratory results reported in PubChem BioAssay (NCI).
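How tested: cells in 96-well plates exposed to compound for 48 hours at five concentrations. GI50 marks 50% less growth. TGI denotes the concentration required for complete inhibition of growth.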

tested on: OVCAR-3 ovarian; assay: NCI tumour cell line growth inhibition, 48 h

First: CC1=Nc2c(ccc3c2C(=O)c2ccccc2C3=O)NC(c2ccncc2)C1 (configuration not stated)
Second: O=C1c2ccccc2-c2c1c1ccccc1c(=O)n2CCNCCCNCCn1c2c(c3ccccc3c1=O)C(=O)c1ccccc1-2
The GI50 of the first is higher: over 100000 nM for the first, 362 nM for the second.

Going from `Cc1ccc(C(=O)CC(Sc2cccc(Cl)c2Cl)c2ccc(Cl)cc2)cc1C` (configuration not stated) to `Cc1ccc2/c(=C/c3ccc(N(C)C)cc3)c3cc(-c4ccccc4)[n+](C)n3c2c1`, the GI50 falls from 15400 nM to 1100 nM (14-fold).

Compared with `c1cc[c]([Sn]([S]c2cccc3cccnc23)([c]2ccccc2)[c]2ccccc2)cc1`, `CNC(=O)c1ccc(-c2cnc3ncc(Cc4ccc5ncccc5c4)n3n2)cc1F` is higher in GI50: 15.8 nM for the first, over 100000 nM for the second.

Going from `COc1cc(/C=C2\CC3C4CC=C5CC(N6CCCC6)CC[C@]5(C)C4CC[C@]3(C)C2OC(C)=O)ccc1OCCN1CCCC1` (some centres not stated) to `CCOC(=O)[C@@H](C)C[C@H](Cc1ccccc1)NC(=O)c1csc([C@@H](C[C@H](C(C)C)N(C)C(=O)[C@@H](NC(=O)[C@H]2CCCCN2C)C(C)(C)C)OC(C)=O)n1`, the GI50 falls from 304 nM to under 1.67 nM.

`CC1=Nc2c(ccc3c2C(=O)c2ccccc2C3=O)NC(c2ccncc2)C1` (configuration not stated) and `O=C1c2ccccc2-c2cccc3ccc(Cc4ccccc4)c1c23` cannot be ordered by TGI: over 100 µM for the first, over 100 µM for the second.

First: Cc1ccc(C(=O)CC(Sc2cccc(Cl)c2Cl)c2ccc(Cl)cc2)cc1C (configuration not stated)
Second: Cc1ccc2/c(=C/c3ccc(N(C)C)cc3)c3cc(-c4ccccc4)[n+](C)n3c2c1
The TGI of the first is 1.5-fold lower: 31.1 µM for the first, 47.5 µM for the second.

Going from `COc1cc(/C=C\c2ccc(O)cc2)cc(OC)c1OC` to `COc1ccc(/C=C/C(=O)c2sc(-n3nc(-c4ccccc4)cc3-c3ccccc3)nc2C)cc1OC`, the TGI rises from 6.24 µM to 62.5 µM (10-fold).

`C=C(COC(C)=O)CC(/C=C(\C)CCC=C(C)C)OC(C)=O` (configuration not stated) and `CC(=O)OCCOCBr` cannot be ordered by TGI: over 100 µM for the first, over 100 µM for the second.

`CC1(C)CCc2cc3c(cc2O1)OCCC3=O` and `CC1(C)OC(=O)C=C([O-])O1.CC1(C)OC(=O)C=C([O-])O1.O=c1c(O)c(-c2ccc([O-])cc2[O-])oc2cc(O)cc(O)c12.[Ti+4]` cannot be ordered by TGI: over 100 µM for the first, over 100 µM for the second.

Compared with `Oc1c2c(c(O)c3ccccc13)=N[C@@H](c1ccccc1)[C@H](c1ccccc1)N=2`, `c1cc[c]([Sn]([S]c2cccc3cccnc23)([c]2ccccc2)[c]2ccccc2)cc1` is lower in TGI: over 100 µM for the first, 0.0346 µM for the second.

Compared with `CNC(=O)c1ccc(-c2cnc3ncc(Cc4ccc5ncccc5c4)n3n2)cc1F`, `CCOc1cccc2nc3cccc(C(=O)NCCN(C)C)c3nc12` is lower in TGI: over 100 µM for the first, 5.51 µM for the second.

First: Cc1cc(C)nc(NS(=O)(=O)c2ccc(Nc3c4ccccc4nc4c(C(=O)N5CCN(CCOS(C)(=O)=O)CC5)ccc(Cl)c34)cc2)n1
Second: O=C1c2ccccc2-c2c1c1ccccc1c(=O)n2CCNCCCNCCn1c2c(c3ccccc3c1=O)C(=O)c1ccccc1-2
The TGI of the first is higher: over 100 µM for the first, 1.12 µM for the second.

`Clc1cc(Cl)c2c(Cl)cc(Cl)c3c2c1N=S=N3` and `CC(=O)c1c(C)n([O-])c2cc(C)c(C)cc2[n+]1=O` cannot be ordered by TGI: over 100 µM for the first, over 100 µM for the second.

First: CN1CCN(C)C1c1cccc(C2N(C)CCN2C)c1
Second: CC1CCCC(C(=O)/C(=C/c2cccc(Cl)c2)C(=O)C(=O)O)C1 (configuration not stated)
The TGI of the first is higher: over 100 µM for the first, 55.4 µM for the second.

Going from `O=C(c1ccccc1)[C@H]1Nc2cnccc2C2c3ccccc3CC21` (some centres not stated) to `COc1ccc(C(=O)C(C(=O)CCC(=O)Nc2cccc(C(F)(F)F)c2)c2ccccc2)cc1` (configuration not stated), the TGI rises from 29.7 µM to over 100 µM.

Compared with `COc1cc(/C=C2\CC3C4CC=C5CC(N6CCCC6)CC[C@]5(C)C4CC[C@]3(C)C2OC(C)=O)ccc1OCCN1CCCC1` (some centres not stated), `CCOC(=O)[C@@H](C)C[C@H](Cc1ccccc1)NC(=O)c1csc([C@@H](C[C@H](C(C)C)N(C)C(=O)[C@@H](NC(=O)[C@H]2CCCCN2C)C(C)(C)C)OC(C)=O)n1` is 570-fold lower in TGI: 2 µM for the first, 0.00352 µM for the second.

`NC1=NC(=O)C(CC(=O)Nc2ccc([N+](=O)[O-])cc2[N+](=O)[O-])S1` (configuration not stated) and `Cc1ncc([N+](=O)[O-])n1CCNC(=O)CCCCn1ccnc1[N+](=O)[O-]` cannot be ordered by TGI: over 100 µM for the first, over 100 µM for the second.

First: N#CC(C#N)=Cc1cccc(Oc2ccccc2)c1
Second: Nc1ccc(SC23CC4CC(CC(C4)C2)C3)cc1
The TGI of the first is lower: 72 µM for the first, over 100 µM for the second.

Compound `NC(CCSCC(F)F)C(=O)O` (configuration not stated) has a TGI of over 100 µM.

tested on: OVCAR-8 ovarian; assay: NCI tumour cell line growth inhibition, 48 h

`CN(C)C(=S)/N=c1\ss/c(=N\S(=O)(=O)c2ccccc2)n1-c1ccccc1` and `Oc1c2c(c(O)c3ccccc13)=N[C@@H](c1ccccc1)[C@H](c1ccccc1)N=2` cannot be ordered by TGI: over 100 µM for the first, over 100 µM for the second.

`N#Cc1c(N)c(C(=O)O)nn(-c2cccc(C(F)(F)F)c2)c1=O` and `CCOC(=O)Cc1nc(/C(C#N)=C/c2ccco2)[nH]c(=O)c1C#N` cannot be ordered by TGI: over 100 µM for the first, over 100 µM for the second.

Going from `CC1=Nc2c(ccc3c2C(=O)c2ccccc2C3=O)NC(c2ccncc2)C1` (configuration not stated) to `Cc1ccc(C(=O)CC(Sc2cccc(Cl)c2Cl)c2ccc(Cl)cc2)cc1C` (configuration not stated), the TGI falls from over 100 µM to 74 µM.

Compared with `COc1cc(/C=C\c2ccc(O)cc2)cc(OC)c1OC`, `COC(=O)C(Cc1ccccc1)N/C=C\C(=O)c1ccc(Cl)cc1` (configuration not stated) is lower in TGI: over 100 µM for the first, 88.9 µM for the second.

`C=C(COC(C)=O)CC(/C=C(\C)CCC=C(C)C)OC(C)=O` (configuration not stated) and `CNC(=O)c1cn(C[C@H](F)CCc2ccc(NC(=O)Cc3cc(OC4CC(F)(F)C4)cc(C)n3)nn2)nn1` cannot be ordered by TGI: over 100 µM for the first, over 100 µM for the second.

For `CC1(C)CCc2cc3c(cc2O1)OCCC3=O`, the TGI was over 100 µM.

Compared with `CC1=Nc2c(ccc3c2C(=O)c2ccccc2C3=O)NC(c2ccncc2)C1` (configuration not stated), `Cc1ccc(C(=O)CC(Sc2cccc(Cl)c2Cl)c2ccc(Cl)cc2)cc1C` (configuration not stated) is lower in GI50: over 100 µM for the first, 24.6 µM for the second.

First: CNC(=O)c1cn(C[C@H](F)CCc2ccc(NC(=O)Cc3cc(OC4CC(F)(F)C4)cc(C)n3)nn2)nn1
Second: COC(=O)C(Cc1ccccc1)N/C=C\C(=O)c1ccc(Cl)cc1 (configuration not stated)
The GI50 of the first is higher: over 100 µM for the first, 35.3 µM for the second.
